Experimental findings from patent publication US20090169538A1, “Methods of Treating or Preventing Tissue Damage Caused by Increased Blood Flow” (REGENERX BIOPHARMACEUTICALS, INC., priority 2006, published 2009) are described below.

The test system of this assay is embryonic heart explants. In kind it is cell-based. To be noted: explants in presence of thymosin β4 with 100 nM wortmanin, p<0.05. An excerpt:
To test the effects of secreted thymosin β4 on cardiac cell migration, an embryonic heart explant system designed to assay cell migration and transformation events on a three-dimensional collagen gel was utilized. In this assay, explants of adjacent embryonic myocardium and endocardium from valve-forming regions were placed on a collagen gel with the endocardium adjacent to the collagen.
Outflow tract was dissected from E11.5 wild type mouse embryos and placed on collagen matrices as previously described. After 10 hours of attachment explants were incubated in 30 ng/300 μl thymosin β4 in PBS, PBS alone or thymosin β4 and 100 nM wortmanin. Cultures were carried out for 3-9 days at 37° C. 5% CO2 and fixed in 4% paraformaldehyde in PBS for 10 min at RT. Cells were counted for quantification of migration and distance using at least three separate explants under each condition for endothelial migration and eight separate explants for myocardial migration.
Paraformaldehyde-fixed explants were permeabilized for 10 min at RT with Permeabilize solution (10 mM PIPES pH6.8; 50 mMNaCl; 0.5% Triton X-100; 300 mM Sucrose; 3 mM MgCl2) and rinsed with PBS 2×5 min at RT. After a series of blocking and rinsing steps, detection antibodies were used and explants rinsed and incubated with Equilibration buffer (Anti-Fade kit) 10 min at room temperature. Explants were scooped to a glass microscope slide, covered, and examined by fluorescein microscopy. TUNEL assay was performed using ApopTag Plus Fluorescein In Situ Apoptosis detection kit (Intergen Company # S7111) as recommended.

Molecules are shown by their SMILES.

For the compound `COC[C@H]1OC(=O)c2coc3c2[C@@]1(C)C1=C(C3=O)[C@@H]2CCC(=O)[C@@]2(C)C[C@H]1OC(C)=O` [wortmanin, reference compound], the “beating frequency upon inhibition of ILK” value is “significant reduction” and the “myocardial cell migration upon inhibition of ILK” value was “significant reduction”.
